Test results published in patent US20120004129A1, “BIOMARKERS FOR INHIBITORS WITH ANTI-ANGIOGENIC ACTIVITY” (Merck Patent GmbH, priority 2008, published 2012).

B1: DI-17E6: antibody (CAS No: 1105038-73-0) having the biological characteristics of monoclonal mouse antibody 17E6, inhibits the αv-integrin subunit; improved immunogenicity (antibody, chains of the INN, looked up, V domains shown)
VH: QVQLQQSGGELAKPGASVKVSCKASGYTFSSFWMHWVRQAPGQGLEWIGYINPRSGYTEYNEIFRDKATMTTDTSTSTAYMELSSLRSEDTAVYYCASFLGRGAMDYWGQGTTVTVSS
VL: DIQMTQSPSSLSASVGDRVTITCRASQDISNYLAWYQQKPGKAPKLLIYYTSKIHSGVPSRFSGSGSGTDYTFTISSLQPEDIATYYCQQGNTFPYTFGQGTKVEIK

How the values were obtained:
STC-1 = STC-1 protein in HUVEC supernatants by Western blotting; format: cell-based, human; settings: vitronectin-coated dishes
Procedure: (§1) Since secreted biomarkers are relevant, the individual candidates were analysed in supernatants of integrin-inhibitor treated cells. HUVEC were treated either DI-17E6 or cilengitide. After different times, culture supernatants were collected and analysed for different biomarker candidates by Western blotting, ELISA or Luminex. Drug-induced biomarker regulation was evaluated in comparison to control cells.
Culture supernatants were collected analysed for STC-1 by Western blotting. […] B) Regulation of STC-1 in response to cilengitide (FIG. 4).
(§2) HUVECs were cultured o/n in vitronectin-coated dishes and incubated with different concentration of Sutent or Sorafenib for 6 h to 48 h. Culture supernatants were collected analysed for STC-1 by Western blotting. A) Regulation of STC-1 in response to Sutent. B) Regulation of STC-1 in response to Sorafenib (FIG. 10).

IL-8 = IL-8 in HUVEC supernatants by Luminex; format: cell-based, human; settings: vitronectin-coated dishes
Procedure: as §1
Culture supernatants were collected analysed for IL-8 by Luminex. […] B) Regulation of IL-8 in response to cilengitide (FIG. 6).
as §2, with “IL-8” for “STC-1”, “Luminex.” for “Western blotting.”, “12).” for “10).”

EDN1 = EDN1 in HUVEC supernatants by ELISA; format: cell-based, human; settings: vitronectin-coated dishes
Procedure: as §1
Culture supernatants were collected analysed for EDN1 by ELISA. […] B) Regulation of EDN1 in response to cilengitide (FIG. 8).
as §2, with “EDN1” for “STC-1”, “ELISA.” for “Western blotting.”, “11).” for “10).”

[1] = phase III, cytokine-refractory advanced renal carcinoma patients; cited from earlier work
[2] = phase II trial; cited from earlier work
[3] = tested on: Xenograft models of colon, breast, and non-small cell lung cancer (NSCLC); settings: cited from earlier work
HUVEC = assay: Gene expression profiles of HUVEC after drug treatment (Affymetrix microarrays); format: cell-based, human; settings: drug-treated vs non-treated or control-treated cells, filtered for secreted candidates
Source text: (§3) Gene expression profiles were generated from experiments with each condition being tested in triplicates. For this, RNA was extracted from treated and control cells and hybridized to genome-wide Affymetrix oligonucleotide microarrays to generate gene expression profiles. After preprocessing with the GCRMA algorithm (Wu Z, Journal American Statistical Association 2004; 99: 909-917), Affymetrix GeneChip data were filtered to exclude probe sets with low variability, low signal or poor probe annotation. Genes were specifically filtered to obtain secreted candidates that might be detectable in body fluids in humans and could be monitored in a non-invasive way in patients.

FAK = assay: Western blot of integrin signalling in HUVEC plated on vitronectin: FAK; format: cell-based, human; settings: for phosphorylation of FAK: HUVEC, Western blot, following treatment
Procedure: as §3, with “To identify biomarkers associated with treatment, HUVEC were treated with cilengitide or DI-17E6. […] Gene expression” for “Gene expression”, “in patients. […] Genes which show under the given condition an extraordinary response / response change/responsiveness are underlined.” for “in patients.”
(§4) Besides growth factor stimulation, integrin-mediated adhesion to the extracellular matrix is important to promote cell proliferation, survival, and migration. Upon integrin ligation a wide range of intracellular signaling events are induced, including activation of Ras, MAPK, FAK, Src, Rac/Rho/cdc42 GTPases. To support survival of endothelial cells during angiogenesis, integrins alpha(V) beta(3)/(5) together with FAK are required for a sustained activation of the MAPK cascade (i.e. ERK1/2). […] After 24 h of treatment, cell lysates were prepared and analysed by Western blotting. Effects on signaling pathways were evaluated by comparing the ratio of phosphorylated to total levels of the respective signaling molecule in order to account for potential effects arising from cell detachment.

ERK1/2 = assay: Western blot of integrin signalling in HUVEC plated on vitronectin: MAPK (ERK1/2); format: cell-based, human; settings: for phosphorylation of MAPK: HUVEC, Western blot, following treatment
Procedure: as §3, with “To identify biomarkers associated with treatment, HUVEC were treated with cilengitide or DI-17E6. […] Gene expression” for “Gene expression”, “in patients. […] Genes which show under the given condition an extraordinary response / response change/responsiveness are underlined.” for “in patients.”
as §4

ADAMTS1 = ADAMTS1 protein in HUVEC supernatants by Western blotting; format: cell-based, human; settings: vitronectin-coated dishes, 6 h to 72 h, vs control cells
Procedure: as §1
Culture supernatants were collected analysed for ADAMTS1 by Western blotting.
HUVECs were cultured o/n in vitronectin-coated dishes and incubated with different concentration of cilengitide for 6 h to 72 h. Culture supernatants were collected analysed for ADAMTS1 by Western blotting. A) Cilengitide mediated regulation of ADAMTS1 (65 kD and 85 kD). (FIG. 3).

MCP-1 = MCP-1 in HUVEC supernatants by Luminex; format: cell-based, human; settings: vitronectin-coated dishes, 6 h to 72 h
Procedure: as §1
Culture supernatants were collected analysed for MCP-1 by Luminex. […] B) Regulation of MCP-1 in response to cilengitide (FIG. 5).

activin A = assay: Activin A in HUVEC supernatants by ELISA; format: cell-based, human; settings: vitronectin-coated dishes, 6 h to 72 h
Procedure: as §1
Culture supernatants were collected analysed for activin A by ELISA. […] B) Regulation of activin A in response to cilengitide (FIG. 9).

PDGF-BB = PDGF-BB in HUVEC supernatants by ELISA; format: cell-based, human; settings: vitronectin-coated dishes, 6 h to 72 h
Procedure: as §1
Culture supernatants were collected analysed for PDGF-BB by ELISA. […] B) Regulation of PDFG-BB in response to cilengitide (FIG. 7).

[4] = tested on: angiogenesis in matrigel plugs; assay: bFGF-induced angiogenesis in matrigel plugs in monkeys (hemoglobin content); format: in vivo, Cynomolgus monkeys; settings: single i.v. infusion at 100, 30, 10, or 3 mg/kg; after 6 days; 5 μg/mL bFGF
Procedure: In this model, angiogenesis was induced in matrigel plugs by the angiogenic growth factor bFGF. Matrigel plugs containing bFGF were implanted subcutan into the abdomen of healthy Cynomologus monkeys, and the animals were injected with DI-17E6 i.v. at different doses immediately thereafter. Evaluation of angiogenesis was carried out after matrigel implantation by quantification of the hemoglobin content in the matrigel plugs. Each condition was tested in different animals implanted with matrigel plugs.
Angiogenesis was induced in subcutaneous matrigel implants containing 5 μg/mL of bFGF in Cynomolgus monkeys. […] After 6 days, angiogenesis was quantified by measuring the hemoglobin content in the matrigel plugs. * denotes a p-value <0.05 and ** denotes a p-value <0.01 (FIG. 13).

CRP = settings: DI-17E6-treated vs placebo-treated animals, 6 days
Procedure: Absolute concentrations of different proteins were measured by Luminex by comparing to respective standards.
Plasma was collected and analysed for CRP and IL-6 by Luminex. A) Regulation of CRP. B) Regulation of IL-6 (FIG. 14).

IL-6 = assay: Plasma IL-6 by Luminex in monkeys with matrigel plugs; format: in vivo, Cynomolgus monkeys; settings: DI-17E6-treated vs placebo-treated animals, 6 days
Source text: A) Regulation of CRP. B) Regulation of IL-6 (FIG. 14).

[5] = HUVEC on vitronectin, 24 h, DI-17E6 0.01 to 10 μg/mL, cilengitide 0.01 to 10 μM
[6] = integrin inhibitors, 24 h to 72 h
[7] = integrin inhibitors, 6 h to 72 h

Molecule | phosphorylation of FAK (FAK) | phosphorylation of MAPK (ERK1/2) | ADAMTS1 protein level in HUVEC supernatants (ADAMTS1) | STC-1 protein level in HUVEC supernatants (STC-1; [6]) | MCP-1 level in HUVEC supernatants (MCP-1) | IL-8 level in HUVEC supernatants (IL-8; [7]) | Activin A level in HUVEC supernatants (activin A) | EDN1 level in HUVEC supernatants (EDN1; [7]) | PDGF-BB level in HUVEC supernatants (PDGF-BB) | further results
CNC(=O)c1cc(Oc2ccc(NC(=O)Nc3ccc(Cl)c(C(F)(F)F)c3)cc2)ccn1 [Sorafenib] |  |  |  |  |  |  |  |  |  | STC-1 protein level in HUVEC supernatants (STC-1; kinase inhibitors, 6 h to 48 h): down-regulated; IL-8 level in HUVEC supernatants (IL-8; kinase inhibitors, 6 h to 48 h): reduced protein levels; EDN1 level in HUVEC supernatants (EDN1; kinase inhibitors, 6 h to 48 h): up-regulated; side effect: diarrhea [1]: 33%; side effect: fatigue [1]: 26%; side effect: hand-foot skin reactions [1]: 27%; side effect: hypertension [1]: 11%; side effect: rash [1]: 34%; additional patients who experienced tumor shrinkage [2]: 9%; patients who experienced stable disease for at least 4 months [2]: 43%; tumor angiogenesis, as measured by anti-CD31 immunostaining [3]: significant inhibition of tumor angiogenesis
CC(C)[C@H]1C(=O)N[C@@H](CCCN=C(N)N)C(=O)NCC(=O)N[C@@H](CC(=O)O)C(=O)N[C@H](Cc2ccccc2)C(=O)N1C [cilengitide, cyclo-(Arg-Gly-Asp-DPhe-NMeVal)] | inhibited | inhibited | up-regulated | up-regulated | down-regulated | down-regulation | down-regulated | down-regulated | down-regulated | Genes down-regulated in response to treatment (RNA level) (HUVEC): INHBA, EDN1, FST, DKK4, BMP4, MCP1, HHIP, NTN4, PHLDB2, PVR, CYR61, AUTS2, MERTK, FSTL3, APLN, PTX3, ANGPTL4, CTGF, SPOCK, IL8, NRG1, DKK3, CD44, BCHE, BDNF, FBXO4, EFEMP1, STC2; Genes up-regulated in response to treatment (RNA level) (HUVEC): ADAMTS 9, DAF, STC1, ADAMTS1, LAMAS, TCN2, SRPX, ADAM15, GUSB, HYAL2, PLAUR, CD40, NOTCH1, ENPP4; activation of FAK (ratio of phosphorylated to total) (FAK; [5]): blocked activation; activation of ERK1/2 (ratio of phosphorylated to total) (ERK1/2; [5]): blocked activation
B1 | inhibited | inhibited | up-regulated | up-regulated | down-regulated | up-regulated | down-regulated | down-regulated | down-regulated | angiogenesis (hemoglobin content in the matrigel plugs) [4]: blocked the formation of new blood vessel at all doses; plasma CRP (CRP): up-regulated; plasma IL-6 (IL-6): up-regulated
